BigSolDB 2.1

NC(=O)c1c(F)c(F)c(F)c(F)c1F
in water
Details | solubility (mole fraction)
291.8 K | 0.00018
297.5 K | 0.00026
303.3 K | 0.00034
310.3 K | 0.0006

O=c1[nH]c(=O)n([C@H]2C[C@H](O)[C@@H](CO)O2)cc1I
in water
Details | solubility (mole fraction)
302.2 K | 0.00013
312.6 K | 0.00021
317.8 K | 0.00026
321.9 K | 0.00039
323 K | 0.00027
326.2 K | 0.00041
332 K | 0.00051
336 K | 0.00047
343.1 K | 0.00076
348.6 K | 0.00089
349.8 K | 0.00102

O=C(Nc1c(F)c(F)c(F)c(F)c1F)C(=O)Nc1c(F)c(F)c(F)c(F)c1F
Details | solubility (mole fraction)
in 2-butanone, 284.2 K | 0.00793
in 2-butanone, 287.1 K | 0.00854
in 2-butanone, 289.4 K | 0.00897
in 2-butanone, 293.4 K | 0.00984
in 2-butanone, 303.3 K | 0.0126
in 2-butanone, 314.7 K | 0.0168
in 2-butanone, 323.9 K | 0.0209
in 2-butanone, 327.2 K | 0.023
in 2-butanone, 331.1 K | 0.025
in 2-butanone, 333.4 K | 0.0271
in 2-butanone, 336.9 K | 0.029
in ethyl acetate, 281.1 K | 0.00822
in ethyl acetate, 285.6 K | 0.00934
in ethyl acetate, 291.9 K | 0.0105
in ethyl acetate, 293.5 K | 0.0116
in ethyl acetate, 303.7 K | 0.0138
in ethyl acetate, 310.9 K | 0.017
in ethyl acetate, 321.4 K | 0.0206
in ethyl acetate, 325.1 K | 0.0229
in ethyl acetate, 326.7 K | 0.0251
in ethyl acetate, 332.2 K | 0.0274
in ethyl acetate, 334.9 K | 0.0295
